# Data: ChEMBL document CHEMBL1147527, “Parallel synthesis of DAPT derivatives and their gamma-secretase-inhibitory activity” (Bioorg Med Chem Lett, 2004)
# Calls of active or inactive are those of the source. No cut-off for these calls is given here.
# Biological target: Gamma-secretase (Homo sapiens) (UniProt Q96BI3+Q9NZ42+Q8WW43+P49768+Q92542+P49810)
# Experiment: (§1) Inhibitory activity against gamma-secretase relative to DAPT
# Type: protein-complex assay
row,Relative activity,SMILES
1,0.1,C[C@H](NC(=O)Cc1cc(F)cc(F)c1)C(=O)N[C@@H](Cc1ccccc1)C(=O)NCc1cccc(Cl)c1
2,0.1,COc1cccc(CNC(=O)[C@H](Cc2ccccc2)NC(=O)[C@H](C)NC(=O)Cc2cc(F)cc(F)c2)c1
3,0.6,C[C@H](NC(=O)Cc1cc(F)cc(F)c1)C(=O)N[C@@H](Cc1ccccc1)C(=O)NCc1ccc(Cl)cc1
4,0.1,C[C@H](NC(=O)Cc1cc(F)cc(F)c1)C(=O)N[C@@H](Cc1ccccc1)C(=O)NCc1ccccc1Cl
5,30,C[C@H](NC(=O)Cc1cc(F)cc(F)c1)C(=O)N[C@@H](Cc1ccccc1)C(=O)NCc1ccc(C(=O)c2ccccc2)cc1
6,0.2,COc1ccccc1CNC(=O)[C@H](Cc1ccccc1)NC(=O)[C@H](C)NC(=O)Cc1cc(F)cc(F)c1
7,0.1,C[C@H](NC(=O)Cc1cc(F)cc(F)c1)C(=O)N[C@@H](Cc1ccccc1)C(=O)NCc1ccc(F)cc1
8,0.6,COC(=O)c1ccc(CNC(=O)[C@H](Cc2ccccc2)NC(=O)[C@H](C)NC(=O)Cc2cc(F)cc(F)c2)cc1
9,0.3,C[C@H](NC(=O)Cc1cc(F)cc(F)c1)C(=O)N[C@@H](Cc1ccccc1)C(=O)NCc1ccccc1Br
10,0.6,C[C@H](NC(=O)Cc1cc(F)cc(F)c1)C(=O)N[C@@H](Cc1ccccc1)C(=O)NCc1ccc(Br)cc1
11,0.4,COc1ccc(CNC(=O)[C@H](Cc2ccccc2)NC(=O)[C@H](C)NC(=O)Cc2cc(F)cc(F)c2)cc1
12,0.1,C[C@H](NC(=O)Cc1cc(F)cc(F)c1)C(=O)N[C@@H](Cc1ccccc1)C(=O)NCc1cccc(Br)c1

# Biological target: T1, Gamma-secretase subunit PEN-2 (Homo sapiens, UniProt Q9NZ42)
# T1 sequence (Q9NZ42 whole entry): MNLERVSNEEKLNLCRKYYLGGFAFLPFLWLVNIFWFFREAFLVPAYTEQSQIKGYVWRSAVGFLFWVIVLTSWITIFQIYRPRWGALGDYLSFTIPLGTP
# Experiment: as §1
row,Relative activity,SMILES
1,1,C[C@H](NC(=O)Cc1cc(F)cc(F)c1)C(=O)N[C@@H](Cc1ccccc1)C(=O)OC(C)(C)C
2,0.3,CCCCNC(=O)[C@H](Cc1ccccc1)NC(=O)[C@H](C)NC(=O)Cc1cc(F)cc(F)c1
3,1,C[C@H](NC(=O)Cc1cc(F)cc(F)c1)C(=O)N[C@@H](Cc1ccccc1)C(=O)NC(c1ccccc1)c1ccccc1
4,1,C[C@H](NC(=O)Cc1cc(F)cc(F)c1)C(=O)N[C@@H](Cc1ccccc1)C(=O)NCc1ccccc1

# Biological target: T1, Gamma-secretase subunit PEN-2
# Experiment: Inhibitory activity against gamma-secretase at concentration of 10 uM; not active
row,Activity,SMILES
1,inactive,C[C@H](NC(=O)Cc1ccccc1O)C(=O)N[C@@H](Cc1ccccc1)C(=O)OC(C)(C)C
2,inactive,C[C@H](NC(=O)Cc1ccc(Br)cc1)C(=O)N[C@@H](Cc1ccccc1)C(=O)OC(C)(C)C
3,inactive,C[C@H](NC(=O)Cc1ccccc1Br)C(=O)N[C@@H](Cc1ccccc1)C(=O)OC(C)(C)C
4,inactive,C[C@H](NC(=O)Cc1ccc(O)cc1)C(=O)N[C@@H](Cc1ccccc1)C(=O)OC(C)(C)C
5,inactive,C[C@H](NC(=O)Cc1cccc(O)c1)C(=O)N[C@@H](Cc1ccccc1)C(=O)OC(C)(C)C
6,inactive,C[C@H](NC(=O)Cc1cccc(Br)c1)C(=O)N[C@@H](Cc1ccccc1)C(=O)OC(C)(C)C

# Biological target: T1, Gamma-secretase subunit PEN-2
# Experiment: Inhibitory activity against gamma-secretase
row,IC50,SMILES
1,50 nM,C[C@H](NC(=O)Cc1cc(F)cc(F)c1)C(=O)N[C@@H](Cc1ccccc1)C(=O)OC(C)(C)C
